From ChEMBL document CHEMBL1139763, “Pyrrolidines as potent functional agonists of the human melanocortin-4 receptor” (Bioorg Med Chem Lett, 2007) come the findings set out here.

The target in experiment [1] is T1, Melanocortin receptor 4 (Homo sapiens, UniProt P32245). Nature of the experiment: Displacement of [125I]NDP-MSH from human MC4R expressed in HEK293 cells. Type of experiment: cell-based.
Experiment [2] deals with T1, Melanocortin receptor 4. Nature of the experiment: Agonist activity at human MC4R expressed in HEK293 cells assessed as cAMP accumulation. Type of experiment: functional, cell-based. Background: cAMP levels reflect the balance of adenylyl cyclase and phosphodiesterase activity.
The target of experiment [3] is T1, Melanocortin receptor 4. As to the kind of experiment: Intrinsic activity at human MC4R expressed in HEK293 cells assessed as cAMP accumulation relative to alphaMSH. Type of experiment: functional, cell-based.

Structures are written as SMILES.

T1 sequence (P32245 whole entry): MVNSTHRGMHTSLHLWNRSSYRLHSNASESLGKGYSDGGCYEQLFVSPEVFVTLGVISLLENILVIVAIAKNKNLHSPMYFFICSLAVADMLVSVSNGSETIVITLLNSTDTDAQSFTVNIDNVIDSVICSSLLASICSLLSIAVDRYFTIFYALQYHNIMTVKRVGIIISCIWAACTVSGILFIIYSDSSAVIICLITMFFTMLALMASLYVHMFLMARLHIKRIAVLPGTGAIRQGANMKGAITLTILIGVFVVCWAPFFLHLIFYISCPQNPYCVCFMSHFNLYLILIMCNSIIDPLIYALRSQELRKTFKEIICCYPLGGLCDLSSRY

`CC(C)C[C@H](NC(=O)CN(C)C)c1cc(C(F)(F)F)ccc1N1CCN(C(=O)[C@@H]2CN(C(C)C)C[C@H]2c2ccc(Cl)cc2)CC1` returned a Ki in experiment [1] of 0.0173 µM. The EC50 in experiment [2] is 0.052 µM. Also, in experiment [3], the Intrinsic activity worked out at 99%.

As to `CNCC(=O)N[C@H](c1cccc(F)c1N1CCN(C(=O)[C@@H]2CN(C(C)C)C[C@H]2c2ccc(Cl)cc2)CC1)C(C)C`, affinity in experiment [1] was put at a Ki of 0.011 µM. Also, the EC50 in experiment [2] was 0.016 µM. The Intrinsic activity in experiment [3] was found to be 114%. The corresponding values for `CC(C)[C@H](N)c1cccc(F)c1N1CCN(C(=O)[C@@H]2CN(C(C)C)C[C@H]2c2ccc(Cl)cc2)CC1` are 0.021 µM, 0.27 µM and 68%. Regarding `CC(C)CN(Cc1ccccc1N1CCN(C(=O)[C@@H]2CN(C(C)C)C[C@H]2c2ccc(Cl)cc2)CC1)C(=O)CCN`, in experiment [1], the Ki was 0.45 µM. In other words, the sub-micromolar range. The same measure, in the same setting: for `CC(C)N1C[C@@H](C(=O)N2CCN(c3ccccc3CN3CCNCC3)CC2)[C@H](c2ccc(Cl)cc2)C1` the value was 0.36 µM; for `COCCN(C)Cc1ccccc1N1CCN(C(=O)[C@@H]2CN(C(C)C)C[C@H]2c2ccc(Cl)cc2)CC1`, 0.32 µM. In the case of `COc1ccccc1N1CCN(C(=O)[C@@H]2CN(C(C)C)C[C@H]2c2ccc(Cl)cc2)CC1`, the Ki in experiment [1] amounted to 0.52 µM. As to `CC(C)C[C@H](NC(=O)[C@H](C)N)c1cc(C(F)(F)F)ccc1N1CCN(C(=O)[C@@H]2CN(C(C)C)C[C@H]2c2ccc(Cl)cc2)CC1`, affinity in experiment [1] was put at a Ki of 0.047 µM. The half-maximal effective concentration (EC50) in experiment [2] is 0.21 µM. Besides, the Intrinsic activity in experiment [3] worked out at 104%. As for `CC(C)N1C[C@@H](C(=O)N2CCN(c3ccccc3CN3CCC(N)CC3)CC2)[C@H](c2ccc(Cl)cc2)C1`, in experiment [1], the Ki was found to be 0.092 µM. In experiment [2], the EC50 worked out at 0.39 µM. Also, the Intrinsic activity in experiment [3] turned out to be 40%.

In experiment [1], `Cc1ccc(N2CCN(C(=O)[C@@H]3CN(C(C)C)C[C@H]3c3ccc(Cl)cc3)CC2)c([C@H](C(C)C)N(C)C)c1` displayed a Ki of 0.013 µM. Besides, in experiment [3], the Intrinsic activity was determined as 44%. Compound `CC(C)C[C@H](NC(=O)CCN)c1cc(C(F)(F)F)ccc1N1CCN(C(=O)[C@@H]2CN(C(C)C)C[C@H]2c2ccc(Cl)cc2)CC1` had a Ki in experiment [1] of 0.0087 µM. In addition, the EC50 in experiment [2] was 0.0046 µM. For the same compound, the Intrinsic activity in experiment [3] was 95%. Regarding `CC(C)N1C[C@@H](C(=O)N2CCN(c3ccccc3CNCCN)CC2)[C@H](c2ccc(Cl)cc2)C1`, the Ki in experiment [1] is 0.23 µM. That is a sub-micromolar value.

`CC(C)N1C[C@@H](C(=O)N2CCN(c3ccccc3Cn3cccn3)CC2)[C@H](c2ccc(Cl)cc2)C1` displayed an inhibitory constant (Ki) in experiment [1] of 0.49 µM. In experiment [1], `CC(=O)N[C@H](c1cc(C)ccc1N1CCN(C(=O)[C@@H]2CN(C(C)C)C[C@H]2c2ccc(Cl)cc2)CC1)C(C)C` returned a Ki of 0.047 µM. Also, the Intrinsic activity in experiment [3] turned out to be 35%. `Cc1ccc(N2CCN(C(=O)[C@@H]3CN(C(C)C)C[C@H]3c3ccc(Cl)cc3)CC2)c([C@@H](N)C(C)C)c1` gave a Ki in experiment [1] of 0.012 µM. In addition, the EC50 in experiment [2] is 0.105 µM. In experiment [3], the Intrinsic activity amounted to 99%.

On to `Cc1ccc(N2CCN(C(=O)[C@@H]3CN(C(C)C)C[C@H]3c3ccc(Cl)cc3)CC2)c([C@@H](NC(=O)CN(C)C)C(C)C)c1`, for which the affinity in experiment [1] corresponds to a Ki of 0.0071 µM. Further, the EC50 in experiment [2] stood at 0.17 µM. Moreover, the Intrinsic activity in experiment [3] stood at 100%. In turn, `CC(C)C[C@H](NC(=O)C1CNC1)c1cc(C(F)(F)F)ccc1N1CCN(C(=O)[C@@H]2CN(C(C)C)C[C@H]2c2ccc(Cl)cc2)CC1` displayed a Ki in experiment [1] of 0.018 µM. Moreover, the EC50 in experiment [2] came out at 0.0066 µM. Further, the Intrinsic activity in experiment [3] came to 80%. Regarding `CNCCNCc1ccccc1N1CCN(C(=O)[C@@H]2CN(C(C)C)C[C@H]2c2ccc(Cl)cc2)CC1`, the Ki in experiment [1] was found to be 0.27 µM.

Take `CC(C)N1C[C@@H](C(=O)N2CCN(c3ccccc3CN)CC2)[C@H](c2ccc(Cl)cc2)C1`: the affinity in experiment [1], expressed as Ki, was 1.1 µM.

`CC(C)C[C@H](NC(=O)[C@@H](C)N)c1cc(C(F)(F)F)ccc1N1CCN(C(=O)[C@@H]2CN(C(C)C)C[C@H]2c2ccc(Cl)cc2)CC1` showed a Ki in experiment [1] of 0.0049 µM. For the same compound, the 50% effective concentration (EC50) in experiment [2] is 0.031 µM. Further, in experiment [3], the Intrinsic activity came to 103%.

`CC(C)CNCc1ccccc1N1CCN(C(=O)[C@@H]2CN(C(C)C)C[C@H]2c2ccc(Cl)cc2)CC1` yielded a Ki in experiment [1] of 0.51 µM. The same measure, in the same setting: the value for `CCN(CC)Cc1ccccc1N1CCN(C(=O)[C@@H]2CN(C(C)C)C[C@H]2c2ccc(Cl)cc2)CC1` was 1.2 µM; that for `CC(C)CN(Cc1ccccc1N1CCN(C(=O)[C@@H]2CN(C(C)C)C[C@H]2c2ccc(Cl)cc2)CC1)CC(C)C` was 1.1 µM. `CC(C)C[C@H](N)c1cc(C(F)(F)F)ccc1N1CCN(C(=O)[C@@H]2CN(C(C)C)C[C@H]2c2ccc(Cl)cc2)CC1` registered a Ki in experiment [1] of 0.026 µM. Moreover, in experiment [2], the EC50 worked out at 1.1 µM. The Intrinsic activity in experiment [3] turned out to be 94%. For the compound `CC(C)N1C[C@@H](C(=O)N2CCN(c3ccccc3CN(C)C3CNC3)CC2)[C@H](c2ccc(Cl)cc2)C1`, in experiment [1], the affinity corresponds to a Ki of 0.24 µM. Same read-out and setting: the value for `CC(C)N1C[C@@H](C(=O)N2CCN(c3ccccc3CNC3CCNCC3)CC2)[C@H](c2ccc(Cl)cc2)C1` was 0.19 µM; that for `CC(C)N1C[C@@H](C(=O)N2CCN(c3ccccc3C=O)CC2)[C@H](c2ccc(Cl)cc2)C1` was 1.15 µM; that for `CC(C)N1C[C@@H](C(=O)N2CCN(c3ccccc3Cn3cnnc3)CC2)[C@H](c2ccc(Cl)cc2)C1` was 0.58 µM.

Turning to `CC(C)N1C[C@@H](C(=O)N2CCN(c3ccccc3CNc3cccnc3)CC2)[C@H](c2ccc(Cl)cc2)C1`, the affinity in experiment [1] corresponds to a Ki of 1.6 µM. Against the preceding compound, the Ki is about 2.8-fold higher. Still for that read-out and setting: for `Cc1nccn1Cc1ccccc1N1CCN(C(=O)[C@@H]2CN(C(C)C)C[C@H]2c2ccc(Cl)cc2)CC1` the value was 0.28 µM; for `CC(C)N1C[C@@H](C(=O)N2CCN(c3ccccc3CN3CCN(C)CC3)CC2)[C@H](c2ccc(Cl)cc2)C1`, 0.84 µM.

For the compound `CC(C)N1C[C@@H](C(=O)N2CCN(c3ccccc3C#N)CC2)[C@H](c2ccc(Cl)cc2)C1`, in experiment [1], affinity was put at a Ki of 4.8 µM. In the case of `CC(C)N1C[C@@H](C(=O)N2CCN(c3ccccc3CN3CCCCC3)CC2)[C@H](c2ccc(Cl)cc2)C1`, the affinity in experiment [1], expressed as Ki, was 0.95 µM. Compared with the last compound, the Ki is about 5.1-fold lower. In experiment [1], `CC(C)C[C@H](NS(C)(=O)=O)c1cc(C(F)(F)F)ccc1N1CCN(C(=O)[C@@H]2CN(C(C)C)C[C@H]2c2ccc(Cl)cc2)CC1` displayed a Ki of 0.087 µM. In addition, the EC50 in experiment [2] came out at 0.45 µM. For the same compound, the Intrinsic activity in experiment [3] turned out to be 96%. The corresponding values for `CC(C)C[C@H](NC(=O)CN)c1cc(C(F)(F)F)ccc1N1CCN(C(=O)[C@@H]2CN(C(C)C)C[C@H]2c2ccc(Cl)cc2)CC1` are 0.0089 µM, 0.044 µM and 115%. In experiment [1], `CC(C)[C@H](NC(=O)[C@@H](C)N)c1cccc(F)c1N1CCN(C(=O)[C@@H]2CN(C(C)C)C[C@H]2c2ccc(Cl)cc2)CC1` came in with a Ki of 0.0044 µM. In experiment [2], the EC50 worked out at 0.009 µM. The Intrinsic activity in experiment [3] amounted to 70%. Compound `CC(C)N1C[C@@H](C(=O)N2CCN(c3ccccc3CNC3CNC3)CC2)[C@H](c2ccc(Cl)cc2)C1` gave a Ki in experiment [1] of 0.52 µM. On the same count and under the same terms, for `CC(C)N1C[C@@H](C(=O)N2CCN(c3ccccc3CN3CCCC3)CC2)[C@H](c2ccc(Cl)cc2)C1` the value was 0.55 µM. With `Cc1cncn1Cc1ccccc1N1CCN(C(=O)[C@@H]2CN(C(C)C)C[C@H]2c2ccc(Cl)cc2)CC1`, affinity in experiment [1] was put at a Ki of 0.25 µM. The compound `CC(C)N1C[C@@H](C(=O)N2CCN(c3ccccc3CN(C)C)CC2)[C@H](c2ccc(Cl)cc2)C1` returned a Ki in experiment [1] of 1.2 µM.

`CC(C)N1C[C@@H](C(=O)N2CCN(c3ccccc3CNc3ccccc3N)CC2)[C@H](c2ccc(Cl)cc2)C1` yielded an inhibitory constant (Ki) in experiment [1] of 1.4 µM. Consider `CC(C)N1C[C@@H](C(=O)N2CCN(c3ccccc3Cn3ccnc3)CC2)[C@H](c2ccc(Cl)cc2)C1`, for which, in experiment [1], the Ki stood at 0.22 µM. Further, the EC50 in experiment [2] turned out to be 0.32 µM. Also, the Intrinsic activity in experiment [3] is 52%. For `CNCC(=O)N[C@@H](CC(C)C)c1cc(C(F)(F)F)ccc1N1CCN(C(=O)[C@@H]2CN(C(C)C)C[C@H]2c2ccc(Cl)cc2)CC1`, the Ki in experiment [1] was 0.0077 µM. Moreover, the EC50 in experiment [2] came to 0.067 µM. The Intrinsic activity in experiment [3] is 63%. On to `CC(C)N1C[C@@H](C(=O)N2CCN(c3ccccc3Cn3cncn3)CC2)[C@H](c2ccc(Cl)cc2)C1`, for which affinity in experiment [1] was put at a Ki of 0.32 µM. Compound `CC(C)N1C[C@@H](C(=O)N2CCN(c3ccccc3Cn3ccnn3)CC2)[C@H](c2ccc(Cl)cc2)C1` came in with a Ki in experiment [1] of 0.42 µM. The Ki values of the last two compounds are within 1.5-fold of each other. Take `CC(C)N1C[C@@H](C(=O)N2CCN(c3ccccc3CNS(C)(=O)=O)CC2)[C@H](c2ccc(Cl)cc2)C1`: the Ki in experiment [1] came to 1.7 µM. For `CC(C)C[C@H](NC(=O)CCN(C)C)c1cc(C(F)(F)F)ccc1N1CCN(C(=O)[C@@H]2CN(C(C)C)C[C@H]2c2ccc(Cl)cc2)CC1`, affinity in experiment [1] was put at a Ki of 0.01 µM. Also, the EC50 in experiment [2] is 0.091 µM. Besides, the Intrinsic activity in experiment [3] was determined as 76%. `Cc1ccc(N2CCN(C(=O)[C@@H]3CN(C(C)C)C[C@H]3c3ccc(Cl)cc3)CC2)c([C@@H](NC(=O)CCN(C)C)C(C)C)c1` yielded a Ki in experiment [1] of 0.0047 µM. In addition, the EC50 in experiment [2] worked out at 0.016 µM. For the same compound, the Intrinsic activity in experiment [3] worked out at 102%. The compound `CC(C)[C@H](NC(=O)CCN)c1cccc(F)c1N1CCN(C(=O)[C@@H]2CN(C(C)C)C[C@H]2c2ccc(Cl)cc2)CC1` registered a Ki in experiment [1] of 0.013 µM. The EC50 in experiment [2] came out at 0.0069 µM. In addition, the Intrinsic activity in experiment [3] came to 100%.

Broadly, the Ki is the dissociation constant of the complex between target and ligand, obtained from inhibition or displacement. A high value points to a looser hold on the target. As a reminder, the EC50 is the concentration at which the effect is half-maximal.
